# pEC50: −log10 of the molar value.
# Columns and labels:
# [1] = target: T1, RORγ-LBD (Homo sapiens, UniProt P51449); assay: RORγ-Ligand Binding Domain (LBD) TR-FRET Assay; assay type: biochemical;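 as to TR-FRET Assay Max Response: 665/615 nm ratio relative to signal without ursolic acid or compound set at 100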
# T1 construct: made in house; host or cells: SF9 cells (baculovirus)
# T1 sequence (P51449 269-508 limits assumed): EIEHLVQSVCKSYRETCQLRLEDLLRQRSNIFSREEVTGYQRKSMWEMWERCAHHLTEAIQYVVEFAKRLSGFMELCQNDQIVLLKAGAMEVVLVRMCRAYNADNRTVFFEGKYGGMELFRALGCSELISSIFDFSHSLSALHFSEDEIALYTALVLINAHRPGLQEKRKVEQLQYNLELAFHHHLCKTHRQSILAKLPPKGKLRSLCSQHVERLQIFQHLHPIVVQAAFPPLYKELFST
# Outline: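 Lysate from SF9 cells expressing His-RORγ-LBD is diluted to about 3 nM final in 50 mM Tris pH 7.0 assay buffer. A biotin-tagged SRC1 LXXLL peptide goes in at 200 nM final, plus ursolic acid at 2 μM final. Test compounds carry 1% DMSO final; signal read by TR-FRET.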
# [2] = target: T2, Gal4-RORγ-LBD (Homo sapiens, UniProt P51449); assay: Gal4-RORγ Luciferase Reporter Assay in HEK-293T Cells; assay type: cell-based; conditions: HEK-293 cells, luciferase reporter, with 2 μM ursolic acid
# T2 construct: expressed in transfected cells; host or cells: HEK-293 cells (pcDNA3.1neo plasmid)
# T2 sequence (P51449 269-508 limits assumed): T1 sequence (P51449 269-508 limits assumed)
# Outline: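 In transfected HEK-293 cells (Gal4-RORγ-LBD, Gal4-luciferase), test agents with 2 μM ursolic acid were incubated overnight at 37 °C before luminescent detection. Values are relative to the ursolic-acid-free, compound-free signal (100).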
SMILES,pEC50 [1],TR-FRET Assay Max Response [1],pEC50 [2],Gal4-RORγ Assay Max Response [2]
"O=C(O)CCNC(=O)CC[C@H]1CN(S(=O)(=O)c2cccc(C(F)(F)F)c2)c2cc(-c3cccc(Cl)c3)ccc2O1 [Compound 23D, (S)-3-(3-(6-(3-chlorophenyl)-4-((3-(trifluoromethyl)phenyl)-sulfonyl)-3,4-dihydro-2H-benzo[b][1,4]oxazin-2-yl)propanamido)propanoic acid]",> 6.30,*** (The symbol “***” indicates a value in the range of greater than 150 to 200),> 6.30,** (The symbol “**” indicates a value in the range of greater than 90 to 150)
"O=C(O)C1CCN(C(=O)CC[C@H]2CN(S(=O)(=O)c3cccc(C(F)(F)F)c3)c3cc(-c4cccc(C(F)(F)F)n4)cc(F)c3O2)CC1 [Compound 23E, (S)-1-(3-(8-fluoro-4-((3-(trifluoromethyl)phenyl)sulfonyl)-6-(6-(trifluoromethyl)pyridin-2-yl)-3,4-dihydro-2H-benzo[b][1,4]oxazin-2-yl)propanoyl)piperidine-4-carboxylic acid]",> 6.30,**** (The symbol “****” indicates a value greater than 200),> 6.30,** (The symbol “**” indicates a value in the range of greater than 90 to 150)
"O=C(O)C1CCN(C(=O)CC[C@H]2CN(S(=O)(=O)c3cccc(C(F)(F)F)c3)c3cc(-c4cccc(C(F)(F)F)n4)ccc3O2)CC1 [Compound 23F, (S)-1-(3-(4-((3-(trifluoromethyl)-phenyl)sulfonyl)-6-(6-(trifluoro-methyl)pyridin-2-yl)-3,4-dihydro-2H-benzo[b][1,4]oxazin-2-yl)propanoyl)piperidine-4-carboxylic acid]",> 6.30,**** (The symbol “****” indicates a value greater than 200),> 6.30,** (The symbol “**” indicates a value in the range of greater than 90 to 150)
"O=C(CC[C@H]1CN(S(=O)(=O)c2cccc(C(F)(F)F)c2)c2cc(-c3cccc(C(F)(F)F)n3)ccc2O1)N1CCS(=O)(=O)CC1 [Compound 23G, (S)-1-(1,1-dioxidothio-morpholino)-3-(4-((3-(trifluoro-methyl)phenyl)sulfonyl)-6-(6-(trifluoromethyl)pyridin-2-yl)-3,4-dihydro-2H-benzo[b][1,4]-oxazin-2-yl)propan-1-one]",> 6.30,**** (The symbol “****” indicates a value greater than 200),> 6.30,** (The symbol “**” indicates a value in the range of greater than 90 to 150)
"COc1cccc(-c2cc(F)c3c(c2)N(S(=O)(=O)c2cccc(C(F)(F)F)c2)C[C@H](CCC(=O)N2CCC(C(=O)O)CC2)O3)c1 [Compound 23H, (S)-1-(3-(8-fluoro-6-(3-methoxyphenyl)-4-((3-(trifluoromethyl)phenyl)sulfonyl)-3,4-dihydro-2H-benzo[b][1,4]oxazin-2-yl)propanoyl)piperidine-4-carboxylic acid]",> 6.30,**** (The symbol “****” indicates a value greater than 200),> 6.30,** (The symbol “**” indicates a value in the range of greater than 90 to 150)
"O=C(O)C1CCN(C(=O)CC[C@H]2CN(S(=O)(=O)c3cccc(C(F)(F)F)c3)c3cc(-c4cccc(F)c4F)cc(F)c3O2)CC1 [Compound 23I, (S)-1-(3-(6-(2,3-difluorophenyl)-8-fluoro-4-((3-(trifluoromethyl)phenyl)sulfonyl)-3,4-dihydro-2H-benzo[b][1,4]oxazin-2-yl)propanoyl)piperidine-4-carboxylic acid]",> 6.30,**** (The symbol “****” indicates a value greater than 200),> 6.30,** (The symbol “**” indicates a value in the range of greater than 90 to 150)
"O=C(O)CNC(=O)CC[C@H]1CN(S(=O)(=O)c2cccc(C(F)(F)F)c2)c2cc(-c3cccc(C(F)(F)F)n3)ccc2O1 [Compound 23J, (S)-(3-(4-((3-(trifluoromethyl)-phenyl)sulfonyl)-6-(6-(trifluoromethyl)pyridin-2-yl)-3,4-dihydro-2H-benzo[b][1,4]oxazin-2-yl)propanoyl)glycine]",> 6.30,**** (The symbol “****” indicates a value greater than 200),5.00 to 5.30,*** (The symbol “***” indicates a value in the range of greater than 150 to 200)
"COc1cccc(-c2ccc3c(c2)N(S(=O)(=O)c2cccc(C(F)(F)F)c2)C[C@H](CCC(=O)NCC(=O)O)O3)c1 [Compound 23K, (S)-(3-(6-(3-methoxyphenyl)-4-((3-(trifluoromethyl)-phenyl)sulfonyl)-3,4-dihydro-2H-benzo[b][1,4]oxazin-2-yl)propanoyl)glycine]",> 6.30,**** (The symbol “****” indicates a value greater than 200),5.30 to 6.30,** (The symbol “**” indicates a value in the range of greater than 90 to 150)
"COc1cccc(-c2ccc3c(c2)N(S(=O)(=O)c2cccc(C(F)(F)F)c2)C[C@H](CCC(=O)N2CCC(C(=O)O)CC2)O3)c1 [Compound 23L, (S)-1-(3-(6-(3-methoxyphenyl)-4-((3-(trifluoromethyl)-phenyl)sulfonyl)-3,4-dihydro-2H-benzo[b][1,4]oxazin-2-yl)propanoyl)piperidine-4-carboxylic acid]",> 6.30,**** (The symbol “****” indicates a value greater than 200),> 6.30,** (The symbol “**” indicates a value in the range of greater than 90 to 150)
"COc1cccc(-c2ccc3c(c2)N(S(=O)(=O)c2cccc(C(F)(F)F)c2)C[C@H](CCC(=O)N2CCS(=O)(=O)CC2)O3)c1 [Compound 23M, (S)-1-(1,1-dioxidothio-morpholino)-3-(6-(3-methoxyphenyl)-4-((3-(trifluoromethyl)phenyl)sulfonyl)-3,4-dihydro-2H-benzo[b][1,4]-oxazin-2-yl)propan-1-one]",> 6.30,**** (The symbol “****” indicates a value greater than 200),> 6.30,*** (The symbol “***” indicates a value in the range of greater than 150 to 200)
"O=C(CC[C@H]1CN(S(=O)(=O)c2cccc(C(F)(F)F)c2)c2cc(-c3cccc(F)c3F)ccc2O1)N1CCS(=O)(=O)CC1 [Compound 23N, (S)-3-(6-(2,3-difluorophenyl)-4-((3-(trifluoromethyl)-phenyl)sulfonyl)-3,4-dihydro-2H-benzo[b][1,4]oxazin-2-yl)-1-(1,1-dioxidothiomorpholino)propan-1-one]",> 6.30,**** (The symbol “****” indicates a value greater than 200),> 6.30,*** (The symbol “***” indicates a value in the range of greater than 150 to 200)
"O=C(O)C1CCN(C(=O)CC[C@H]2CN(S(=O)(=O)c3cccc(C(F)(F)F)c3)c3cc(-c4cccc(F)c4F)ccc3O2)CC1 [Compound 23P, (S)-1-(3-(6-(2,3-difluorophenyl)-4-((3-(trifluoromethyl)-phenyl)sulfonyl)-3,4-dihydro-2H-benzo[b][1,4]oxazin-2-yl)propanoyl)piperidine-4-carboxylic acid]",> 6.30,**** (The symbol “****” indicates a value greater than 200),> 6.30,*** (The symbol “***” indicates a value in the range of greater than 150 to 200)
"O=C(O)C1CCN(C(=O)NC[C@H]2CN(S(=O)(=O)c3cccc(C(F)(F)F)c3)c3cc(-c4cc(F)ccc4F)ccc3O2)CC1 [Compound 23Q, (S)-1-(((6-(2,5-difluorophenyl)-4-((3-(trifluoromethyl)-phenyl)sulfonyl)-3,4-dihydro-2H-benzo[b][1,4]oxazin-2-yl)methyl)carbamoyl)piperidine-4-carboxylic acid]",> 6.30,**** (The symbol “****” indicates a value greater than 200),5.30 to 6.30,*** (The symbol “***” indicates a value in the range of greater than 150 to 200)
"CN(CCC(=O)O)C(=O)NC[C@H]1CN(S(=O)(=O)c2cccc(C(F)(F)F)c2)c2cc(-c3cc(F)ccc3F)ccc2O1 [Compound 23R, (S)-3-(3-((6-(2,5-difluorophenyl)-4-((3-(trifluoromethyl)phenyl)-sulfonyl)-3,4-dihydro-2H-benzo[b][1,4]oxazin-2-yl)methyl)-1-methylureido)propanoic acid]",> 6.30,**** (The symbol “****” indicates a value greater than 200),5.30 to 6.30,** (The symbol “**” indicates a value in the range of greater than 90 to 150)
